Where two headings read alike, the source gives them in different places.
How the values were obtained:
MCF-7 Cells = test: Cell proliferation inhibition, CTG (CelltiterGlo) method, alone or combined with fulvestrant; format: cell-based; settings: compound alone; for IC50: Homo sapiens, MCF7, 168 h, 7 days; for Maximum Inhibition Rate on MCF-7 Cells: maximum value fitted by GraphPad Prism 8
Description: a). BT-474 cells were cultured in Hybri-Care medium supplemented with 1% antibiotics and 10% FBS, and incubated in the condition of 37°C with 5% CO2; b). MCF-7 cells were cultured in EMEM medium supplemented with 1% antibiotics, 0.01 mg/mL insulin, and 10% FBS, and incubated in the condition of 37°C with 5% CO2; c). ZR-75-1 cells were cultured in RPMI-1640 medium supplemented with 1% antibiotics and 10% FBS, and incubated in the condition of 37°C with 5% CO2; d). T47D cells were cultured in RPMI-1640 medium supplemented with 1% antibiotics, 0.2 U/mL insulin, and 10% FBS, and incubated in the condition of 37°C with 5% CO2; e) CAMA-1 cells were cultured in EMEM medium supplemented with 1% antibiotics and 10% FBS, and incubated in the condition of 37°C with 5% CO2.
a). Cells were routinely cultured until reaching 80%-90% confluence and when the required cell number was reached, they were harvested; b). Resuspended in the corresponding medium, counted, and prepared into a cell suspension with appropriate density; c). The cell suspension was added to a 384-well plate at 40 µL per well. Table 1. Plating densities of different cell lines
d). The cells were cultured overnight in an incubator at 37°C with 5% CO2 .
a). The compound of Formula (A) was serially diluted 3-fold for 10 concentrations starting from a stock solution of 60 mM (using the monofumarate dihydrate of the compound of Formula (A), with the concentration calculated based on the free base of the compound of Formula (A); the compound of Formula (A) or salt thereof was prepared with reference to the preparation method disclosed in WO2022017448A1); b). Fulvestrant was diluted from 10 mM to 2 mM with DMSO, then serially diluted 3-fold for 10 concentrations; c). Fulvestrant was diluted from 2 mM to 0.2 mM with DMSO, then serially diluted 3-fold for 10 concentrations; d). Fulvestrant was diluted from 0.2 mM to 2 µM with DMSO; e). Fulvestrant was diluted from 2 µM to 0.8 µM with DMSO; f). Fulvestrant was diluted from 2 µM to 0.3 µM with DMSO; g) Fulvestrant was diluted from 0.8 µM to 0.08 µM with DMSO; h). The final concentration of DMSO was 0.1%; i). Cells supplemented with DMSO served as control wells for high reading values; j). Cell-free medium served as control wells for low reading values.
24 Hours after MCF-7, T47D, and CAMA-1 cells were plated, the compound was administered alone. For the compound of Formula (A): 20 nL of the compound prepared in step 2.3 a) + 20 nL of DMSO were added. For compound fulvestrant: 20 nL of the compound prepared in step 2.3 c) + 20 nL of DMSO were added.
24 Hours after MCF-7 cells were plated, the compound of Formula (A) was administered in combination with fulvestrant: 20 nL of the compound prepared in step 2.3 a) + 20 nL of the compounds prepared in step 2.3 c), e), and f). […]

[1] = Clinical trial of the compound of Formula (A) tablets as monotherapy: pharmacokinetics; format: in vivo, patients with advanced malignant solid tumors; settings: 400mg Monotherapy; for half-life / AUC(0-t) / Cmax / Vd/F: 400 mg
Source text: All contents of the trial protocol with registration number CTR20211999 on the China Drug Clinical Trial Registration and Information Disclosure Platform and results thereof are incorporated herein by reference.
Study Objectives: To evaluate the safety and tolerability of the compound of Formula (A) in patients with advanced malignant solid tumors (including breast cancer and ovarian cancer) who have failed standard treatment, and to explore the maximum tolerated dose (MTD) of the compound of Formula (A), and determine the recommended phase II dose (RP2D). To evaluate the pharmacokinetic (PK) characteristics of the compound of Formula (A) following a single dose and continuous administration for 21 days in patients with advanced solid tumors. To assess the preliminary efficacy of the compound of Formula (A) in the treatment of advanced solid tumors.
Trial Design: The study was an open-label, single-arm, non-randomized clinical trial focusing on safety, efficacy, and pharmacokinetics. The first part was the dose-finding phase, and the second part was the dose-expansion phase.
A starting dose of 20 mg of the compound of Formula (A) was selected, with successive dose-finding groups set as 20 mg, 50 mg, 100 mg, 200 mg, 300 mg, and 400 mg. The administration regimen included once-daily single-dose administration (with a 7-day washout period) and multiple-dose administration (continuous administration for 21 days, 28 days as one cycle, treatment continued until intolerable toxicity, disease progression, or subject withdrawal).
The dose-expansion phase was initiated after the completion of the dose-finding phase. Based on the results of dose escalation, the dosage for the dose-expansion group was determined, with oral administration once daily (continuous administration for 21 days, 28 days as one cycle, and treatment will be continued until intolerable toxicity, disease progression, or subject withdrawal).
1) Safety and Tolerability: Maximum Tolerated Dose (MTD) and Dose-Limiting Toxicity (DLT); 2) PK Indicators: See Tables 13 and 14 below; 3) Efficacy Indicators: Objective Response Rate (ORR), Disease Control Rate (DCR), Duration of Response (DOR), and Progression-Free Survival (PFS). Table 13. PK Indicators of the compound of Formula (A) monotherapy in the dose-finding phase

[2] = Multiple Doses, n=8, dose-expansion phase
[3] = human, in vivo, oral, Single Dose, n=10, dose-finding phase

Compound | IC50 (MCF-7 Cells) | Maximum Inhibition Rate on MCF-7 Cells (MCF-7 Cells) | CLss/F [1, 2] | Cav,ss [1, 2] | Cmin,ss [1, 2] | Tmax,ss [1, 2] | CL/F ([1]; Single Dose, n=10, dose-finding phase) | half-life ([1]; human, in vivo, oral, Multiple Doses, n=8, dose-expansion phase) | AUC(0-t) ([1]; human, in vivo, oral, Multiple Doses, n=8, dose-expansion phase, read-out: AUC0-t,ss) | Cmax ([1]; human, in vivo, oral, Multiple Doses, n=8, dose-expansion phase, read-out: Cmax,ss) | Vd/F ([1]; human, in vivo, oral, Multiple Doses, n=8, dose-expansion phase, read-out: Vss/F) | half-life [1, 3] | AUC(0-t) ([1]; human, in vivo, oral, Single Dose, n=10, dose-finding phase, read-out: AUC0-t) | Cmax ([1]; human, in vivo, oral, Single Dose, n=10, dose-finding phase, read-out: Cmax) | Vd/F ([1]; human, in vivo, oral, Single Dose, n=10, dose-finding phase, read-out: Vz/F) | AUC ([1]; human, in vivo, oral, Multiple Doses, n=8, dose-expansion phase, read-out: AUC0-τ) | Tmax [1, 3]
C[C@]12CC[C@@H]3c4ccc(O)cc4C[C@@H](CCCCCCCCC[S+]([O-])CCCC(F)(F)C(F)(F)F)[C@H]3[C@@H]1CC[C@@H]2O (stereo partly shown) [Fulvestrant, reference compound] | 0.19 nM | 54.67% | – | – | – | – | – | – | – | – | – | – | – | – | – | – | –
CC(C)NC[C@@H](C(=O)N1CCN(c2ncnc3c2[C@H](C)CC(=O)N3)[C@H]2C[C@H]21)c1ccc(Cl)cc1 [The compound of Formula (A), (R)-4-((1S,6R)-5-((S)-2-(4-chlorophenyl)-3-(isopropylamino)propanoyl)-2,5-diazabicyclo[4.1.0]heptan-2-yl)-5-methyl-5,8-dihydropyrido[2,3-d]pyrimidin-7(6H)-one] | 759 nM | 98.92% | 155.88 ± 81.87 L/h | 131.73 ± 64.21 ng/mL | 33.76 ± 14.66 ng/mL | 3.00 [0,6.00] h | 186.378 ± 99.471 L/h | 12.9 ± 4.19 h | 3530 ± 1770 ng·h/mL | 462 ± 245 ng/mL | 2880 ± 1670 L | 7.22 ± 1.91 h | 2380 ± 1160 ng·h/mL | 392 ± 178 ng/mL | 1920 ± 1000 L | 3160 ± 1540 ng·h/mL | 3 h

Reference: patent publication EP4729061A1, “USE OF AKT INHIBITOR IN PREPARATION OF DRUG FOR PREVENTING OR TREATING BREAST CANCER” (Nanjing Chia Tai Tianqing Pharmaceutical Co., Ltd., priority 2023, dated 2024)
